Laboratory results reported in ChEMBL document CHEMBL5620343, “Advances in the development of phosphodiesterase 7 inhibitors” (Eur J Med Chem, 2023).
Values after ≈ are worked out from the molar mass of the structure shown. One block for each compound: values may come before it.

Columns and labels:
[1] = Half life in rat; format: ADME; conditions: in vivo
[2] = Oral bioavailability in rat; format: ADME, organism-based; conditions: in vivo
Phosphodiesterase 7 [3] = biological target: T1, Phosphodiesterase 7 (Homo sapiens, UniProt Q13946+Q9NP56); experiment: Inhibition of recombinant PDE7 (unknown origin) expressed in Escherichia coli BL21 (DE3) using [3H]cAMP as substrate preincubated for 15 mins followed by compound addition and incubated for 1 hr by liquid scintillation method
Phosphodiesterase 4 [4] = biological target: T2, Phosphodiesterase 4 (Homo sapiens, UniProt P27815+Q08499+Q07343+Q08493); experiment: Inhibition of human recombinant PDE4; format: protein assay
Phosphodiesterase 7 [5] = biological target: T1, Phosphodiesterase 7; experiment: Inhibition of full length PDE7 (unknown origin) using FAM-cAMP as substrate by fluorescence based analysis; format: protein assay
[6] = biological target: 3',5'-cyclic-AMP phosphodiesterase 7B (Homo sapiens, UniProt Q9NP56); experiment: Inhibition of PDE7B (unknown origin) by 3H-cAMP scintillation proximity assay
Sequence of 3',5'-cyclic-AMP phosphodiesterase 7B (Q9NP56 whole entry, the tested form may be a part): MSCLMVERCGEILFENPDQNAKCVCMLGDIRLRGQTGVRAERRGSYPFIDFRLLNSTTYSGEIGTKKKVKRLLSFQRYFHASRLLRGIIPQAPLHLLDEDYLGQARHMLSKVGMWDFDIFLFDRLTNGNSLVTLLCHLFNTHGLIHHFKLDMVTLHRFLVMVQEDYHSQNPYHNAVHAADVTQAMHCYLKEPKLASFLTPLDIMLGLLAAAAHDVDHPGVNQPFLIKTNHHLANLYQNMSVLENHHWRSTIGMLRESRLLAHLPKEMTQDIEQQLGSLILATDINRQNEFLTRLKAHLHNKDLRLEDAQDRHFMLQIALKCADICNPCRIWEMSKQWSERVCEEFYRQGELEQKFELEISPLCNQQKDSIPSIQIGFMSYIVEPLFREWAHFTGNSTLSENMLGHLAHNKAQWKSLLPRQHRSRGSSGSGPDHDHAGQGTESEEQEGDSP

[7] = Inhibition of human PDE4 catalytic domain expressed in Escherichia coli
[8] = Selectivity index, ratio of IC50 for inhibition of PDE7A1 (130 to 482 residues) (unknown origin) expressed in Escherichia coli BL21 to IC50 for inhibition of recombinant PDE4D2 (86 to 413 residues) (unknown origin) expressed in Escherichia coli BL21
[9] = biological target: T3, Glycogen synthase kinase-3 beta (Homo sapiens, UniProt P49841); experiment: Inhibition of GSK-3beta (unknown origin)
T3 sequence (P49841 whole entry, the tested form may be a part): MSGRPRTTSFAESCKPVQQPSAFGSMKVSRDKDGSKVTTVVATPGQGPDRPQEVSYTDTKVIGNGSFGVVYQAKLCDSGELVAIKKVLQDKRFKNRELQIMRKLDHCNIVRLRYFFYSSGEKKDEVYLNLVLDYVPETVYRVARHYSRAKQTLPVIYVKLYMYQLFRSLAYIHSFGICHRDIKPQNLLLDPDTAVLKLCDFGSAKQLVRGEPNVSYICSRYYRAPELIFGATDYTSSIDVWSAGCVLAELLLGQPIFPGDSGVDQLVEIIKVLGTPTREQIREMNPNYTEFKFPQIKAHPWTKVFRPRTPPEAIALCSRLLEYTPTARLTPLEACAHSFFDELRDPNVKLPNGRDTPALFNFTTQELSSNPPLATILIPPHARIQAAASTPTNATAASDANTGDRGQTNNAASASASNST

[10] = biological target: T4, High affinity 3',5'-cyclic-AMP phosphodiesterase 7A (Homo sapiens, UniProt Q13946); experiment: Inhibition of recombinant PDE7A1 (130 to 482 residues) (unknown origin) expressed in Escherichia coli BL21 (DE3) using [3H]cAMP as substrate incubated for 15 mins by liquid scintillation method
T4 sequence (Q13946 whole entry, the tested form may be a part): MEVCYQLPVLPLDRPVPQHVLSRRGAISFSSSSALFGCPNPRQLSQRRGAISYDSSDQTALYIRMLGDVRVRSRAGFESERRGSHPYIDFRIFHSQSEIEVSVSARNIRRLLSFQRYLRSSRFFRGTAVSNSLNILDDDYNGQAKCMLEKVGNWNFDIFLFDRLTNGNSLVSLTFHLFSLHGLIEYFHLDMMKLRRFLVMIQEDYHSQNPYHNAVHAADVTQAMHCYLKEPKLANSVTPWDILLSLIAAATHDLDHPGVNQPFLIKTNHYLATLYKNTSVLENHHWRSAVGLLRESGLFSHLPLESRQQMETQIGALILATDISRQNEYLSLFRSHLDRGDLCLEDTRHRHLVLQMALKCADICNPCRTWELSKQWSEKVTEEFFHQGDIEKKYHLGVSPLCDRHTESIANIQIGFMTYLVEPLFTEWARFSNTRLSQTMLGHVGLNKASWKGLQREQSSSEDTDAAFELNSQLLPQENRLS

[11] = biological target: 3',5'-cyclic-AMP phosphodiesterase 4A (Homo sapiens, UniProt P27815); experiment: Inhibition of PDE4A1 (unknown origin)
Sequence of 3',5'-cyclic-AMP phosphodiesterase 4A (P27815 whole entry): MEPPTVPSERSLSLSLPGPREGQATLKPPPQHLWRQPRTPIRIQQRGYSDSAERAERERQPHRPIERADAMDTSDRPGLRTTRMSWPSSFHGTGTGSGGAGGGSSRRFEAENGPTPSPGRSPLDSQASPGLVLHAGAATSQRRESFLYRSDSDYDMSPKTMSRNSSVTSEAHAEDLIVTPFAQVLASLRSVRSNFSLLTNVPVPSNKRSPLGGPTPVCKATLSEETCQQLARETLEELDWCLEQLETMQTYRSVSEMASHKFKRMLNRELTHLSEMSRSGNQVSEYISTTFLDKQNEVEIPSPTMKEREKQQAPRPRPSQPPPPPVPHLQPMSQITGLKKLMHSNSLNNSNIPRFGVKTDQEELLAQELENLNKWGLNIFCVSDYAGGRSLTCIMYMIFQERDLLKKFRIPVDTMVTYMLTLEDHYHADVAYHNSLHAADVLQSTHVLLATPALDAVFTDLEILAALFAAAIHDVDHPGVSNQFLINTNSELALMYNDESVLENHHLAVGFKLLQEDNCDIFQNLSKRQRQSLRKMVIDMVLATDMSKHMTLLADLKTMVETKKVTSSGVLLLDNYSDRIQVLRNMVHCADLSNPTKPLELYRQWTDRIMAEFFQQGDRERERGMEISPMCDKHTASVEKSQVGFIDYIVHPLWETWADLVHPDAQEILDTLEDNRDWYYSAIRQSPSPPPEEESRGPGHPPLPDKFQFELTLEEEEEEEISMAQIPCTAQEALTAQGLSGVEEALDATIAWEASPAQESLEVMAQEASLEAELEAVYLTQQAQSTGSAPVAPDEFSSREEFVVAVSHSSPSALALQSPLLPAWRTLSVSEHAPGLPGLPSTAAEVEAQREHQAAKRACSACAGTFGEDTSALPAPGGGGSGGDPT

[12] = biological target: 3',5'-cyclic-AMP phosphodiesterase 4B (Homo sapiens, UniProt Q07343); experiment: Inhibition of PDE4B1 (unknown origin)
Sequence of 3',5'-cyclic-AMP phosphodiesterase 4B (Q07343 whole entry): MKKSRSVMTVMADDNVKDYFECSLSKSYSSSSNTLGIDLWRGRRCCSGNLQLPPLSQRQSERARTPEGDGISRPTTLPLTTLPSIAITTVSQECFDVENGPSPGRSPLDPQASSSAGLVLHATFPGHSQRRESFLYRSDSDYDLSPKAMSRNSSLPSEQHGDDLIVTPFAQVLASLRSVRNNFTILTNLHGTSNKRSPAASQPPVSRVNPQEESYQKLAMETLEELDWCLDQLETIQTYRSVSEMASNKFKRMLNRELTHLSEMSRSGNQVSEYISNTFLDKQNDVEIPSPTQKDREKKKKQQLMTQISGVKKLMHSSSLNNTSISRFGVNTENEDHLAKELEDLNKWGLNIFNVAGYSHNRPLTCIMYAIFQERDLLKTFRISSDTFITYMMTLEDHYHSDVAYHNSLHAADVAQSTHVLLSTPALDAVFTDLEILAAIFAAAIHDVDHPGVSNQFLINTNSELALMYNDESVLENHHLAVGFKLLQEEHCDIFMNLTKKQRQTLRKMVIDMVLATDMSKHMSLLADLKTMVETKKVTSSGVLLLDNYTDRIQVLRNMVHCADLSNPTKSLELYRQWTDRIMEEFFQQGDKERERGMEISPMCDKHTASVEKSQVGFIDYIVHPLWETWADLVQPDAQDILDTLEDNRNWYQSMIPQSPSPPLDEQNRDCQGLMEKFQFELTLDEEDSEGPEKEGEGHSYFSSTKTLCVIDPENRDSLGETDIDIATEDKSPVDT

Phosphodiesterase 7 [13] = biological target: T1, Phosphodiesterase 7; experiment: Inhibition of PDE7 (unknown origin) by fluorescent based assay; format: protein assay
[14] = biological target: T3, Glycogen synthase kinase-3 beta; experiment: Inhibition of GSK3beta (unknown origin) activity assessed as […] by ADP-Glo Kinase Assay
Homo sapiens = organism: Homo sapiens; experiment: Selectivity index, ratio of IC50 for human PDE4B1 S133D mutant to IC50 for human PDE4D7 S129D mutant
Phosphodiesterase 3 = Phosphodiesterase 3 (Homo sapiens, UniProt Q14432+Q13370); experiment: Inhibition of human recombinant PDE3 expressed in Escherichia coli
[15] = Inhibition of PDE8 (unknown origin) by fluorescent based assay; design: species or system Homo sapiens
Phosphodiesterase 4 [16] = biological target: T2, Phosphodiesterase 4; experiment: Inhibition of PDE4 (unknown origin) by fluorescent based assay; format: protein assay
[17] = biological target: 3',5'-cyclic-AMP phosphodiesterase 4D (Homo sapiens, UniProt Q08499); experiment: Inhibition of human PDE4D3
Sequence of 3',5'-cyclic-AMP phosphodiesterase 4D (Q08499 whole entry): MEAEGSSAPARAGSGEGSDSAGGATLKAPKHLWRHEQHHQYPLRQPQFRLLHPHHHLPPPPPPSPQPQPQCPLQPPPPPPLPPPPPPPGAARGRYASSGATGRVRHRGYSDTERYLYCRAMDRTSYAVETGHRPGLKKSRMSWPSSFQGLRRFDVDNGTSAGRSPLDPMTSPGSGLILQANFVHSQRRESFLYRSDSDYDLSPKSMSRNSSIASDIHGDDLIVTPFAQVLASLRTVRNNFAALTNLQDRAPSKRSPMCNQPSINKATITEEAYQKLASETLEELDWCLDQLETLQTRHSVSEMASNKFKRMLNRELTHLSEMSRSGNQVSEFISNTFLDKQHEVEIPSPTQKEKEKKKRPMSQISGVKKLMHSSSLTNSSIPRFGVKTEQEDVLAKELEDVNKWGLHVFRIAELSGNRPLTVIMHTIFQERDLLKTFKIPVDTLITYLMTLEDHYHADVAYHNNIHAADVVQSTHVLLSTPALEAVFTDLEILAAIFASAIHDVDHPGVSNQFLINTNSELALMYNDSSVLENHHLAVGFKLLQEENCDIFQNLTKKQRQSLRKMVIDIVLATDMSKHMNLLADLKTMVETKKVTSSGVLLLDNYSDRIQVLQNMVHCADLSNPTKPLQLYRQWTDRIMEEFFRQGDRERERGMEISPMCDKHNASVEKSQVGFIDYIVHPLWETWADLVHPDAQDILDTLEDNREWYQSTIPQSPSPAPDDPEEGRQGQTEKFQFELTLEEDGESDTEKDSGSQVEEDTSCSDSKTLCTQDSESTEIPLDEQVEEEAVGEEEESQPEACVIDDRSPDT

[18] = biological target: T4, High affinity 3',5'-cyclic-AMP phosphodiesterase 7A; experiment: Inhibition of recombinant PDE7A1 (unknown origin) expressed in Escherichia coli BL21 using [3H]cAMP as substrate preincubated for 15 mins followed by compound addition and measured after 1 hr by liquid scintillation method
[19] = Oral bioavailability in mouse at 2.5 mg/kg; format: ADME, organism-based; conditions: in vivo
[20] = Aqueous solubility of compound in PBS at pH 6.5; format: physicochemical
Phosphodiesterase 7 [21] = biological target: T1, Phosphodiesterase 7; experiment: Inhibition of PDE7 (unknown origin); format: protein assay
[22] = biological target: T4, High affinity 3',5'-cyclic-AMP phosphodiesterase 7A; experiment: Inhibition of PDE7A (unknown origin)
[23] = Brain to plasma ratio in iv dosed rat measured after 30 mins; format: ADME, organism-based; conditions: read-out: BPR

- half-life [1]: 1.5 h
- bioavailability [2]: 27%
- IC50 (Phosphodiesterase 7 [3]): 14 nM
- IC50 (Phosphodiesterase 4 [4]): 1700 nM
Compound: CN1CCN(C(=O)c2ccc(-c3cc(Cl)c4c(c3)C3(CCCCC3)NC(=O)N4)cc2)CC1

- IC50 (Phosphodiesterase 7 [5]): 550 nM
Compound: S=c1[nH]c2ccccc2c(=S)n1-c1ccccc1

- IC50 [6]: 14 nM
- IC50 [7]: 630 nM
- Ratio IC50 [8]: 45
Compound: COc1ccc(-c2cc3c(n2-c2ccc(S(=O)(=O)Nc4nc(C)cc(C)n4)cc2)CCC(N2CCN(C)CC2)C3)cc1C (stereo not given)

- IC50 [9]: 1950 nM
Compound: OCC/N=c1/nc(-c2ccccc2)n(-c2ccccc2)s1

- IC50 [10]: 142 nM
- IC50 [11]: 112 nM
- IC50 [12]: 305 nM
Compound: CCOC(=O)c1cc2c(=O)n3ccccc3nc2n(C2CCCCC2)/c1=N\C(C)=O

- IC50 (Phosphodiesterase 7 [13]): 8100 nM
Compound: CC(C)Cn1c(=O)n(C)c(=O)c2nc[nH]c21 [ISOBUTYLMETHYLXANTHINE]

- IC50 (Phosphodiesterase 7 [5]): 8000 nM
Compound: O=S1(=O)N=C(O)c2ccccc2N1

- IC50 (Phosphodiesterase 7 [5]): 6.1 nM
Compound: COc1ccc(Cn2c(=O)c3cc(OCC#N)ccc3n(C3CC[S+]([O-])CC3)c2=O)cc1OC (stereo not given)

- IC50 (Phosphodiesterase 7 [13]): 380 nM
- IC50 [14]: 1280 nM
Compound: c1ccc(-c2n/c(=N/Cc3cccnc3)sn2-c2ccccc2)cc1

- IC50 (Phosphodiesterase 7 [3]): 16 nM
- IC50 (Phosphodiesterase 4 [4]): 1420 nM
Compound: O=C1Nc2c(Cl)cc(-c3ccccc3)cc2C2(CCCCC2)N1

- IC50 (Phosphodiesterase 7 [5]): 1500 nM
Compound: Cn1nc(-c2ccc(Cl)cc2)s/c1=N\C1CCCCC1

- IC50 [6]: 1700 nM
- IC50 [7]: 130 nM
- Ratio IC50 [8]: 13
Compound: CCOc1cc2cc(CO)c(CO)c(-c3ccnc(-n4nc(-c5cccnc5)c5ccccc5c4=O)c3)c2cc1OCC

- IC50 [6]: 620 nM
- Ratio IC50 (Homo sapiens): 238
Compound: Cc1ccc([N+](=O)[O-])cc1S(=O)(=O)N(C)C

- IC50 (Phosphodiesterase 7 [5]): 20 nM
Compound: COc1cc(-c2nc(NC3CCCC3)c3ccsc3n2)cc(OC)c1OC

- IC50 (Phosphodiesterase 7 [5]): 1590 nM
- IC50 (Phosphodiesterase 3): > 10000 nM
Compound: Br.c1ccc(-c2n/c(=N/CCC3CCOCC3)sn2-c2ccccc2)cc1

- IC50 (Phosphodiesterase 7 [13]): 39 nM
- IC50 [15]: 140 nM
Compound: COc1ccc(Cn2c(=O)c3cc(OC(CF)CF)ccc3n(C3CCN(C=O)CC3)c2=O)cc1OC

- IC50 (Phosphodiesterase 4 [16]): 380 nM
Compound: O=C(Nc1ccc(N2CCOCC2)cc1)c1cn(Cc2c(F)cccc2F)c2cccnc2c1=O

- IC50 [17]: 61 nM
- IC50 [18]: 15300 nM
Compound: Cn1nc(-c2ccc(C(N)=O)cc2)s/c1=N\C1CCCCC1

- IC50 [17]: 160 nM
- IC50 [18]: 3970 nM
- bioavailability [19]: 49.3%
Compound: Cn1nc(-c2ccc(Cl)cc2)s/c1=N\c1ccc(F)c(C(=O)O)c1

- IC50 (Phosphodiesterase 7 [5]): 5.5 nM
Compound: COc1ccc(Cn2c(=O)c3cc(OCC#N)ccc3n(C3CCSCC3)c2=O)cc1OC

- IC50 (Phosphodiesterase 7 [13]): 37 nM
- IC50 [15]: 15 nM
Compound: N#Cc1cc(Cn2c(=O)c3cc(OC(CF)CF)ccc3n(C3CCN(C=O)CC3)c2=O)ccc1-c1ccccc1

- IC50 (Phosphodiesterase 7 [3]): 170 nM
Compound: O=C1Nc2c(Cl)cccc2C2(CCCCC2)N1

- IC50 [12]: 543 nM
Compound: CCCCc1nc2c(c(=O)n(C)c(=O)n2C)n1CCCC(=O)Nc1cc(C(C)(C)C)ccc1O

- IC50 (Phosphodiesterase 7 [5]): 1150 nM
Compound: COc1ccc(/C(CSc2nc3ccccc3c(=O)n2-c2ccccc2)=N\O)cc1

Compound: CSc1nc2c(C)cccc2c(=O)n1-c1c(F)cccc1F
- IC50 (Phosphodiesterase 7 [5]): 130 nM
- IC50 (Phosphodiesterase 4 [16]): 1400 nM

- IC50 [18]: < 171 nM
Compound: FC(F)(F)c1cc(N2C(=S)Nc3ccccc3C23CCc2ccccc2N3)cc(C(F)(F)F)c1 (stereo not given)

- solubility [20]: 5 µg/mL (≈ 9.68 µM)
Compound: CCOC(=O)c1sc(Nc2nc(NCc3ccc(S(N)(=O)=O)cc3)c3c(ncn3CC)n2)nc1C

- IC50 [18]: < 10 nM
Compound: CN(C)C(=O)CCN(C)C(=O)c1nc2cc(Cl)c3c(c2o1)C1(CCCCC1)NC(=O)N3

- IC50 (Phosphodiesterase 7 [21]): 3.3 nM
- IC50 (Phosphodiesterase 4 [16]): 46 nM
Compound: CCn1c(NC(C)C)nc2c(C3CCN(C(=O)c4cccc(C)n4)C3)csc2c1=O (stereo not given)

Compound: CC(C)(C)CSc1nc2ccccc2c(=O)n1-c1ccccc1
- IC50 (Phosphodiesterase 7 [5]): 100 nM

- IC50 (Phosphodiesterase 7 [5]): < 10 nM
- IC50 (Phosphodiesterase 4 [16]): 11900 nM
Compound: COc1cc(CN(Cc2ccc(OC)cc2OC)c2ncnc3c2nnn3C2CC(C(F)(F)F)CCC2(F)F)cc(OC)c1 (stereo not given)

- IC50 (Phosphodiesterase 7 [5]): 55 nM
- IC50 (Phosphodiesterase 7 [3]): 55 nM
Compound: O=C1Nc2c(Cl)ccc(OCCO)c2C2(CCCCC2)N1

- IC50 (Phosphodiesterase 7 [13]): 1590 nM
- IC50 [14]: 880 nM
Compound: c1ccc(-c2n/c(=N/CCN3CCOCC3)sn2-c2ccccc2)cc1

- IC50 [6]: 23 nM
- IC50 [7]: 2.3 nM
- Ratio IC50 [8]: 10
Compound: COc1ccc(C2=NN(C3CCN(C(=O)N4CCOCC4)CC3)C(=O)[C@@H]3CC=CC[C@H]23)cc1Cl

- IC50 (Phosphodiesterase 7 [13]): 46 nM
Compound: COc1cc(Cn2c(=O)c3cc(OC(CF)CF)ccc3n(C3CCN(C=O)CC3)c2=O)ccc1OCC(=O)N1CCCCC1

- IC50 [18]: < 0.15 nM
Compound: O=C1Nc2c(Cl)ccc(Oc3ccccc3-c3nnn[nH]3)c2C2(CCCCC2)N1

- IC50 [10]: 1400 nM
Compound: CCOc1ccc(-c2c(C(C)(C)O)oc(=O)c3ccccc23)cc1OC1CCCC1

- IC50 [17]: 88 nM
- IC50 [18]: 616 nM
- bioavailability [19]: 38.5%
Compound: Cn1nc(-c2ccc(C(N)=O)cc2)s/c1=N\[C@@H]1CCC[C@@H](O)C1

- IC50 (Phosphodiesterase 7 [13]): 1020 nM
- IC50 [14]: 6300 nM
Compound: N=c1nc(-c2ccccc2)n(-c2ccccc2)s1

- IC50 [22]: 18.6 nM
- IC50 (Phosphodiesterase 3): 0.76 nM
- Kp at 0.5 h [23]: 1.69
Compound: COc1ccc(C2=NN(C3CCCC3)C(=O)[C@@H]3CC=CC[C@H]23)cc1Cl

Compound: O=c1c2ccccc2[nH]c(=S)n1-c1ccccc1
- IC50 [6]: 8800 nM

- IC50 [18]: < 10 nM
Compound: O=C1Nc2c(Cl)cc3nc(CN4CCNCC4)oc3c2C2(CCCCC2)N1

- IC50 [22]: 0.76 nM
- IC50 (Phosphodiesterase 3): 5 nM
Compound: CCn1ncc2c(NC3CCOCC3)c(-c3nnc(Cc4sc(C)nc4C)o3)cnc21 [GSK-356278]

- IC50 (Phosphodiesterase 7 [5]): 74 nM
Compound: Fc1cc2nc(S)[nH]c(=S)c2cc1F
